Key:
[1] = target: human acetyl-CoA carboxylase 1 (hACC1) (Homo sapiens, UniProt Q13085); assay: In vitro ACC enzyme inhibition (ADP luminescence), hACC1; type: biochemical; settings: human ACC1 enzyme; 15 min pre-incubation, 1 hour reaction at room temperature
Method: (§1) The IC50 value was determined to evaluate the ability of the test compounds to inhibit acetyl-CoA carboxylase (ACC).
(§2) Protein: human acetyl-CoA carboxylase 1 (hACC1) and human acetyl-CoA carboxylase 2 (hACC2).
(§3) Cofactor: acetyl coenzyme A, ATP
(§4) Activator: potassium citrate
(§5) 1. 1 time of the enzyme/substrate/cofactor was added to the wells of the well plate.
(§6) 2. According to Acoustic technology, the solutions of the compounds in DMSO were added to the above enzyme mixture and the mixture was pre-incubated for 15 minutes.
(§7) 3. ATP was added to initiate the reaction and the mixture was shaken until thoroughly mixed.
(§8) 4. The mixture was incubated for 1 hour at room temperature.
(§9) 5. After quenching the reaction, the incubation continued for 40 minutes.
(§10) 6. After adding the detection reagents, the mixture was incubated for 30 minutes.
(§11) 8. Data analysis: based on the standard curve of ADP, the luminescence was converted into ADP product concentration and the enzyme activity was calculated. Graphpad Prism software was used to fit the curve to obtain the IC50 value.

[2] = target: human acetyl-CoA carboxylase 2 (hACC2) (Homo sapiens, UniProt O00763); assay: In vitro ACC enzyme inhibition (ADP luminescence), hACC2; type: biochemical; settings: human ACC2 enzyme; 15 min pre-incubation, 1 hour reaction at room temperature
Method: as §1, §2, §3, §4, §5, §6, §7, §8, §9, §10, §11

[3] = Pharmacokinetics in C57BL/6 mice (iv and oral); type: in vivo; settings: mouse, plasma, male C57BL/6 mice; for clearance / half-life / AUC(0-t): iv 2.0 mg/kg, oral 10 mg/kg (route not given); for half-life: read-out: Half-life T1/2 (converted); for bioavailability: oral 10 mg/kg vs iv 2.0 mg/kg, read-out: Bioavailability F
Method: Testing the pharmacokinetics characteristics of the compounds in C57BL/6 mice
C57BL/6 mice (male, 18-30 g, 7-9 weeks, Shanghai Lingchang Biotechnology Co., Ltd.)
The clear solution of the test compounds (0.5 mg/mL in 10% DMSO, 10% polyethylene glycol stearate, 80% water) was injected via tail vein into 4 male C57BL/6 mice (overnight fasted, 7-9 weeks), at a dose of 2.0 mg/kg. The suspensions or clear solutions of the test compounds (1 mg/mL in 10% PEG400, 90% (0.5% methylcellulose+0.2% Tween 80)) were administrated by oral gavage to 4 male C57BL/6 mice (overnight fasted, 7-9 weeks), at a dose of 10 mg/kg.
Two mice were set in each group and subjected to blood sampling alternatively, 4 to 5 time points per mouse. At 0.0833h (IV group only), 0.25 h, 0.5 h, 1.0 h, 2.0 h, 4.0 h, 6.0 h, 8.0 h, and 24 h after the intravenous or oral administration, about 30 μL of blood was collected by saphenous vein puncture and added into an anticoagulation tube with EDTA-K2, and the plasma was isolated by centrifugation. The drug plasma concentration was determined by LC-MS/MS, and WinNonlin™ Version 6.3 (Pharsight, Mountain View, Calif.) pharmacokinetic software was used to calculate relevant pharmacokinetic parameters using the non-compartmental model linear logarithmic trapezoidal method.

[4] = tested on: NASH mouse model induced by HFD+CCl4; assay: In vivo pharmacodynamic study in NASH mouse model induced by HFD+CCl4; settings: HFD+CCl4 mice; oral gavage QD Day 0-27; WX004B 0.5, 1, 3 mg/kg; reference I-181 3 mg/kg
From the text: The objective of this research is to study the effect of the compound on improving NASH and liver fibrosis in HFD+CCl4 mouse model, with 1-181 as the reference compound.
1-181 is an Acetyl-CoA carboxylase inhibitor and is currently undergoing a phase II clinical study on non-alcoholic fatty liver disease (NAFLD). The HFD+CCl4 mouse model used in this study is an animal model simulating human non-alcoholic fatty liver disease evolving into NASH, high-fat diet causes the fat accumulation and steatosis in liver cells; CCl4 (intraperitoneal injection, twice a week) simulates the “second hit” of liver injury.
The modeling for this experiment included two steps of high-fat feed and CCl4 induction. Firstly, the mice were fed with high-fat feed to induce non-alcoholic fatty liver, and mice with body weight >38 g were selected. The mice were continuously fed with high-fat feed, and simultaneously intraperitoneally injected with 25% CCl4, […], twice a week, for a total of four weeks. The day of starting CCl4 administration was set as day 0, and the time of starting CCl4 administration was set as hour 0. On the day of starting CCl4 administration, the intragastric administration was started, and the administration volume of each group was 5 mL/kg, once a day for 4 weeks (28 days). […]

Sequence of human acetyl-CoA carboxylase 2 (hACC2) (O00763 whole entry): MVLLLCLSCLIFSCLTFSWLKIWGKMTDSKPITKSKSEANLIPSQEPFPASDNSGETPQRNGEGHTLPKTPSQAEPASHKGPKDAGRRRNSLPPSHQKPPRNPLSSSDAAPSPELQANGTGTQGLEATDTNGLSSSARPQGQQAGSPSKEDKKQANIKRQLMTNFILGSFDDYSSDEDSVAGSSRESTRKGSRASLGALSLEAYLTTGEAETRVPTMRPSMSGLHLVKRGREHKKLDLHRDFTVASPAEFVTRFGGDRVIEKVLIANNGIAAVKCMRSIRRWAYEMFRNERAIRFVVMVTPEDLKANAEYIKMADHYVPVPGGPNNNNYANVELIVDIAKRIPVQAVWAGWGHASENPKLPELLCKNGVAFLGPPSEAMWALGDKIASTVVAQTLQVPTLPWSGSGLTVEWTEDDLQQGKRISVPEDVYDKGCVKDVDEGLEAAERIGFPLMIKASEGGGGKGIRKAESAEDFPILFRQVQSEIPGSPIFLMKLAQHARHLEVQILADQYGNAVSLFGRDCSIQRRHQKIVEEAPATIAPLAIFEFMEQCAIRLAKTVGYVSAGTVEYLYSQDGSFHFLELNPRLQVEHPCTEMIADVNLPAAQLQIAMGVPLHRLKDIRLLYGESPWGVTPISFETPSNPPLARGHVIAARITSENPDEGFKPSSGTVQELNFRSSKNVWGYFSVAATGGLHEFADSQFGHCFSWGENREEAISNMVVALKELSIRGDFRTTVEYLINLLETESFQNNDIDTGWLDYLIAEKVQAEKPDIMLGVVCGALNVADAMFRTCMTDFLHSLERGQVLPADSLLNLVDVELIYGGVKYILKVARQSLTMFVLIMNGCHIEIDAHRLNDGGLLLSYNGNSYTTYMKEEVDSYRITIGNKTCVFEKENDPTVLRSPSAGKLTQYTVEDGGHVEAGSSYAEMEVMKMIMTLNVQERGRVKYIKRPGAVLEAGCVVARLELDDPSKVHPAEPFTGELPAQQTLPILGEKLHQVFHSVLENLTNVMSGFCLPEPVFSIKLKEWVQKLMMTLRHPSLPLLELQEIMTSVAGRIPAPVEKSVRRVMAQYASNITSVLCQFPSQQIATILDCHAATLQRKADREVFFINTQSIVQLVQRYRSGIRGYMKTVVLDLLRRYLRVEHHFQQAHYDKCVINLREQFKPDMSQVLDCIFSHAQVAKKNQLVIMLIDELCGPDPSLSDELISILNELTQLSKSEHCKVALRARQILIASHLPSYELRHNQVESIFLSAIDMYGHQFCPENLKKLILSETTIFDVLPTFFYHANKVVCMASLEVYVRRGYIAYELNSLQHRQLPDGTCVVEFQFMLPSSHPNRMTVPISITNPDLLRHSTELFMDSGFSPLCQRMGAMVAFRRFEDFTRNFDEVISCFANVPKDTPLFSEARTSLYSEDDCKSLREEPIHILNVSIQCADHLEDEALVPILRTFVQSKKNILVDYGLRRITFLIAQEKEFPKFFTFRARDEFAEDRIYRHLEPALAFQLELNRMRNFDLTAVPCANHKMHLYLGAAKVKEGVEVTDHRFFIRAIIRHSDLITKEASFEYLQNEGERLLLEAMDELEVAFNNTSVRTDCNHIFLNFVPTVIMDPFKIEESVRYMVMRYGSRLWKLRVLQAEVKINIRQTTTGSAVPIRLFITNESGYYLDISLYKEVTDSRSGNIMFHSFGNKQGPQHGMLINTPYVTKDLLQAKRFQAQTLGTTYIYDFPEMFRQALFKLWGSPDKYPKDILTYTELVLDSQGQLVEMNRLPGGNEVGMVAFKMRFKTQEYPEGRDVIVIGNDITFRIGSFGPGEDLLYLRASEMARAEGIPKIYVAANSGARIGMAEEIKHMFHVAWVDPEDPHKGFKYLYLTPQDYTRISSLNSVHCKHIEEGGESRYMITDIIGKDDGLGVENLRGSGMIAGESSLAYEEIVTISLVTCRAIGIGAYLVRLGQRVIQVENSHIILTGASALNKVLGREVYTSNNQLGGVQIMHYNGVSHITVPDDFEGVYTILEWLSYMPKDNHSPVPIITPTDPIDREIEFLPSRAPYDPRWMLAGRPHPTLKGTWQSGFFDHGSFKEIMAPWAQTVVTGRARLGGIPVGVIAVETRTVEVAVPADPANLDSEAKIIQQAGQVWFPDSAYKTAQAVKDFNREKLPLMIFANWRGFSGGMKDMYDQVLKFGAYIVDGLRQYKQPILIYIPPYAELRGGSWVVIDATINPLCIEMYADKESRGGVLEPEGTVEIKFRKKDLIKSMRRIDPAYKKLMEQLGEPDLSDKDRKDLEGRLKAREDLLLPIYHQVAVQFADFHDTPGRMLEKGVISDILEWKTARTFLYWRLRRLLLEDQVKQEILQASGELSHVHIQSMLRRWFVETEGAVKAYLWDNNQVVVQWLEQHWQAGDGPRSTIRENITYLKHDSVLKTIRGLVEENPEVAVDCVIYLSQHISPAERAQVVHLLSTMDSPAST

SMILES	IC50 [1] [nM]	IC50 [2] [nM]	other results
COc1ccccc1[C@H](Cn1nc(C2(C(=O)O)CCCCC2)c(=O)c2c(C)c(-c3ncco3)sc21)OC1CCOCC1 [WX007B]	9.1	12.6	
COc1ccccc1C(Cn1nc(CC(=O)O)c(=O)c2c(C)c(-c3ncco3)sc21)OC1CCOCC1 (single isomer, unassigned) [WX003B]	10.9	3.4	
COc1ccccc1C(Cn1nc(C2(C(=O)O)CCNCC2)c(=O)c2c(C)c(-c3ncco3)sc21)OC1CCOCC1 (stereo not drawn) [WX010]	83.9	70.7	
COc1ccccc1C(Cn1nc(C2(C(=O)O)CCCC2)c(=O)c2c(C)c(-c3ncco3)sc21)OC1CCOCC1 (single isomer, unassigned) [WX001B]	4.9	8	
COc1ccc(F)cc1[C@H](Cn1nc(C(C)(C)C(=O)O)c(=O)c2c(C)c(-c3ncco3)sc21)OC1CCOCC1 [WX016B]	11.1	4.8	
COc1ccccc1[C@H](Cn1nc(C2(C(=O)O)CCOCC2)c(=O)c2c(C)c(-c3ncco3)sc21)OC1CCOCC1 [WX008B]	5.3	13.9	clearance [3]: 51.9 mL/min/kg; half-life [3]: 36 min; bioavailability [3]: 5.86%; AUC(0-t) [3]: 0.304 µM·h
COc1ccccc1[C@H](Cn1nc(C(C)(C)C(=O)O)c(=O)c2c(C)c(-c3ncco3)sc21)OC1CCOCC1 [WX004B]			Efficacy in NAS (anti-NASH effect) [4]: the same efficacy in both NAS and fibrosis as the reference compound at a higher dose; Efficacy in fibrosis (anti-fibrosis effect) [4]: the same efficacy in both NAS and fibrosis as the reference compound at a higher dose; AUC(0-t) [3]: 7.21 µM·h
COc1ccccc1[C@H](Cn1nc(C(F)(F)C(=O)O)c(=O)c2c(C)c(-c3ncco3)sc21)OC1CCOCC1 [WX009B]	5.6	11	clearance [3]: 92.1 mL/min/kg; half-life [3]: 36.6 min; bioavailability [3]: 1.26%; AUC(0-t) [3]: 0.04 µM·h

Continued, in another order:

IC50 [1] [nM]	IC50 [2] [nM]	SMILES	other results
53.6	8.7	COc1ccccc1C(Cn1nc(CC(=O)O)c(=O)c2c(C)c(-c3ncco3)sc21)OC1CCOCC1 (stereo not drawn) [WX002]	
26	10.9	COc1ccccc1C(Cn1nc(C(C)(C)C(=O)O)c(=O)c2c(C)c(-c3ncco3)sc21)OC1CCN(C(C)=O)CC1 (racemic) [WX011]	
20.3	22.1	COc1ccccc1C(Cn1nc(C2(C(=O)O)CCC2)c(=O)c2c(C)c(-c3ncco3)sc21)OC1CCOCC1 (stereo not drawn) [WX006]	
20.2	7	COC(=O)N1CCC(OC(Cn2nc(C(C)(C)C(=O)O)c(=O)c3c(C)c(-c4ncco4)sc32)c2ccccc2OC)CC1 (racemic) [WX015]	
46.6	45	COc1ccccc1C(Cn1nc(C2(C(=O)O)CC2)c(=O)c2c(C)c(-c3ncco3)sc21)OC1CCOCC1 (stereo not drawn) [WX005]	
14.2	5.7	COc1ccccc1C(Cn1nc(C(C)(C)C(=O)O)c(=O)c2c(C)c(-c3ncco3)sc21)OC1CCN(S(C)(=O)=O)CC1 (racemic) [WX012]	
26	7.2	COc1ccccc1C(Cn1nc(C(C)(C)C(=O)O)c(=O)c2c(C)c(-c3ncco3)sc21)OC1CCN(C(=O)OC(C)(C)C)CC1 (stereo not drawn) [WX014]	

From patent publication US11680070B2, “Thieno[2,3-c]pyridazin-4(1H)-one derivative and application thereof” (MEDSHINE DISCOVERY INC., priority 2018, dated 2023)
